# Assay results taken from patent publication US20230407098A1, “METHOD FOR EVALUATING CYSTINE UPTAKE ABILITY OF CELL, KIT FOR EVALUATING CYSTINE UPTAKE ABILITY OF CELL, METHOD FOR DETERMINING SELENOCYSTEINE, AND KIT FOR DETERMINING SELENOCYSTEINE” (DOJINDO LABORATORIES, priority 2021, published 2023).
# Tests used:
# HeLa cells = experiment: Ability to take selenocystine into cells (FOdA/TCEP fluorescence measurement); type: cell-based, human; conditions: selenocystine at concentrations in cystine-free DMEM, 30 minutes, FIG. 2
# Protocol: DMEM (cystine-free) was added to HeLa cells, and the cells were incubated in a CO2 incubator (37° C.) for 5 minutes. After the removal of the supernatant, DMEM (cystine-free) containing selenocystine at concentrations was added, and the cells were incubated in the CO 2 incubator (37° C.) for 30 minutes. After removing the supernatant, the cells were washed with PBS three times and then lysed with methanol. Then, 100 mM MES at a pH of 6 containing 10 μM FOdA and 200 μM TCEP was added, and the mixture was incubated at 37° C. for 30 minutes. The fluorescence intensity of each solution was then measured with a plate reader (Infinite(R) 200 PRO, excitation wavelength: 485 nm, fluorescence wavelength: 535 nm).
# cystine transporter = molecular target: T1, cystine transporter (Homo sapiens, UniProt Q9UPY5); experiment: Inhibition of selenocystine uptake by cystine transporter inhibitor; type: cell-based; conditions: HeLa cells, with cystine transporter inhibitor (sulfasalazine or erastin); FIG. 3
# T1 construct: endogenous in cells; host or cells: HeLa cells
# T1 sequence (Q9UPY5 1-501): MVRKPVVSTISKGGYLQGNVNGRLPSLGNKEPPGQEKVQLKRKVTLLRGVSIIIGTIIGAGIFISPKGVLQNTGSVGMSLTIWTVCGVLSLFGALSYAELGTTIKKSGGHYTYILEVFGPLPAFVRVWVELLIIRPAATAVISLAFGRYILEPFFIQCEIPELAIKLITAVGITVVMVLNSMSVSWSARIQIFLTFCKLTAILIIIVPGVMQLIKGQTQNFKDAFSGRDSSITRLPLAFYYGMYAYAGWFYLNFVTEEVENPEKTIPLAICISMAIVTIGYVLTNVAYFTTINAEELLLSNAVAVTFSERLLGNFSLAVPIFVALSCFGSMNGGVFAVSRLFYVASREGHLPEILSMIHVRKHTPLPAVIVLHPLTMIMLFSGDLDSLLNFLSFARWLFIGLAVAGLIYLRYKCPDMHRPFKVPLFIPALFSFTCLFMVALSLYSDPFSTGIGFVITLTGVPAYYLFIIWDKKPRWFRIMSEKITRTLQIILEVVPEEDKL
# T1 sequence (P08195 1-529 partner): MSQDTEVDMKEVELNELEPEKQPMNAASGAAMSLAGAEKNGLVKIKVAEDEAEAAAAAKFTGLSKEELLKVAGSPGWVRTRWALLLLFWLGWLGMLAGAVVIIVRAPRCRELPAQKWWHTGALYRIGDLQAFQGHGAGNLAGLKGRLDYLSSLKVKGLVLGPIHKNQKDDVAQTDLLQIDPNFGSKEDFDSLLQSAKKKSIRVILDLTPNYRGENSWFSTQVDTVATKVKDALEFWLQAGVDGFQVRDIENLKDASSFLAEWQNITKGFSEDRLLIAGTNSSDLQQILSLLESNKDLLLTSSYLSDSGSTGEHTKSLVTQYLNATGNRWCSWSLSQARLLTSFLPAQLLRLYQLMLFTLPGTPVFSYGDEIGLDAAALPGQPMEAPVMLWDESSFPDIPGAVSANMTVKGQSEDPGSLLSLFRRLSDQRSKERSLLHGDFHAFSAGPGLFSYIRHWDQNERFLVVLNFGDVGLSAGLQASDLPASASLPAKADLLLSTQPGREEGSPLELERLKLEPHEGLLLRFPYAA
# Protocol: DMEM (cystine-free) containing a cystine transporter inhibitor (sulfasalazine or erastin) was added to HeLa cells, and the cells were incubated in the CO2 incubator (37° C.) for 5 minutes. DMEM (cystine-free) containing 200 μM selenocystine was then added, and the cells were incubated in the CO2 incubator (37° C.) for 30 minutes. After removing the supernatant, the cells were washed with PBS three times and lysed with methanol. Then, 100 mM MES at a pH of 6 containing 10 μM FOdA and 200 μM TCEP was added, and the cells were incubated at 37° C. for 30 minutes. The fluorescence intensity of each solution was then measured with a plate reader (Infinite(R) 200 PRO, excitation wavelength: 485 nm, fluorescence wavelength: 535 nm).
compound,measurement,setting,value
N[C@@H](C[Se][Se]C[C@H](N)C(=O)O)C(=O)O [selenocystine],fluorescence intensity (selenocystine taken up by the cells),HeLa cells,increased depending on the concentration of selenocystine
same,route of selenocystine uptake,cystine transporter,taken through cystine transporter
